Laboratory results taken from article PMC8752738, “A propolis-derived small molecule ameliorates metabolic syndrome in obese mice by targeting the CREB/CRTC2 transcriptional complex” (Nature Communications, 2022).
Several values for one entry are separate records, joined by “and”; a condition that tells them apart may be missing. Identical values can stand only once.

Assay: Metabolic chamber assay
Type: in vivo, mouse
Settings: DIO ip APC; for AUC of RER, %, group mean: mean of APC group, N=4; for AUC of RER, % / RER of DIO: single animals
Protocol: Metabolic parameters of mice were determined using Columbus Instruments Comprehensive Lab Animal Monitoring System (CLAMS). The area unit under the curve (AUC) of respiratory exchange ratio (RER) and ambulatory activity (X-TOT) were calculated using Graphpad prism 8.0.

SMILES: CC(C)=CCc1cc(C=CC(=O)O)cc(CC=C(C)C)c1O [APC, 3,5-diprenyl-4-hydroxycinnamic acid]
- AUC of RER, %, group mean (Dark): 65.31%
- AUC of RER, %, group mean (Light): 53.9%
- AUC of RER, % (Light): 54.07% and 52.83% and 53.85% and 54.85%
- RER of DIO, column mean over the RER curve (Mean of APC, 70 intervals, 4 animals): 0.8038
- AUC of RER, %, column mean over total, light and dark (Mean of APC, two-way RM ANOVA): 79.47%
- AUC of RER, %, group mean (Total): 119.2%
- AUC of RER, % (Total): 125.06% and 111.68% and 115.24% and 124.86%
- AUC of RER, % (dark): 70.99% and 58.85% and 61.39% and 70.01%
- RER of DIO (interval 1, hour 0): 0.728 and 0.729 (2×) and 0.733
- RER of DIO (interval 2, hour 0.7): 0.795 and 0.774 and 0.72 and 0.734
- RER of DIO (interval 3, hour 1.1): 0.732 and 0.773 and 0.726 and 0.735
- RER of DIO (interval 4, hour 1.5): 0.747 and 0.761 and 0.73 and 0.738
- RER of DIO (interval 5, hour 1.8): 0.78 and 0.778 and 0.722 and 0.754
- RER of DIO (interval 6, hour 2.2): 0.747 and 0.794 and 0.723 and 0.738
- RER of DIO (interval 7, hour 2.6): 0.764 and 0.792 and 0.716 and 0.758
- RER of DIO (interval 8, hour 2.9): 0.779 and 0.804 and 0.705 and 0.738
- RER of DIO (interval 9, hour 3.3): 0.766 and 0.82 and 0.724 and 0.727
- RER of DIO (interval 10, hour 3.7): 0.818 and 0.814 and 0.729 and 0.75
- RER of DIO (interval 11, hour 4.0): 0.78 and 0.803 and 0.732 and 0.733
- RER of DIO (interval 12, hour 4.4): 0.735 and 0.792 and 0.714 and 0.756
- RER of DIO (interval 13, hour 4.8): 0.768 and 0.812 and 0.743 and 0.781
- RER of DIO (interval 14, hour 5.1): 0.759 and 0.799 and 0.716 and 0.757
- RER of DIO (interval 15, hour 5.5): 0.769 and 0.778 and 0.775 and 0.742
- RER of DIO (interval 16, hour 5.9): 0.783 and 0.804 and 0.718 and 0.774
- RER of DIO (interval 17, hour 6.2): 0.75 and 0.77 and 0.709 and 0.78
- RER of DIO (interval 18, hour 6.6): 0.801 and 0.79 and 0.715 and 0.767
- RER of DIO (interval 19, hour 7.0): 0.759 and 0.797 and 0.758 and 0.785
- RER of DIO (interval 20, hour 7.3): 0.769 and 0.747 and 0.713 and 0.758
- RER of DIO (interval 21, hour 7.7): 0.841 and 0.78 and 0.749 and 0.771
- RER of DIO (interval 22, hour 8.1): 0.782 and 0.771 and 0.743 and 0.797
- RER of DIO (interval 23, hour 8.4): 0.804 and 0.814 and 0.781 and 0.79
- RER of DIO (interval 24, hour 8.8): 0.838 and 0.788 and 0.764 and 0.822
- RER of DIO (interval 25, hour 9.2): 0.844 and 0.798 and 0.804 and 0.842
- RER of DIO (interval 26, hour 9.5): 0.809 and 0.808 and 0.794 and 0.831
- RER of DIO (interval 27, hour 9.9): 0.818 and 0.808 and 0.792 and 0.849
- RER of DIO (interval 28, hour 10.3): 0.832 and 0.843 and 0.84 and 0.846
- RER of DIO (interval 29, hour 10.6): 0.841 and 0.824 and 0.818 and 0.858
- RER of DIO (interval 30, hour 11.0): 0.821 and 0.847 and 0.832 (2×)
- RER of DIO (interval 31, hour 11.4): 0.844 and 0.835 and 0.841 and 0.829
- RER of DIO (interval 32, hour 11.7): 0.827 and 0.833 and 0.828 and 0.825
- RER of DIO (interval 33, hour 12.1): 0.841 and 0.831 and 0.816 (2×)
- RER of DIO (interval 34, hour 12.5): 0.864 and 0.863 and 0.842 and 0.837
- RER of DIO (interval 35, hour 12.8): 0.866 and 0.842 and 0.843 and 0.836
- RER of DIO (interval 36, hour 13.2): 0.891 and 0.836 and 0.797 and 0.825
- RER of DIO (interval 37, hour 13.6): 0.88 and 0.869 and 0.798 and 0.846
- RER of DIO (interval 38, hour 13.9): 0.846 and 0.848 and 0.837 and 0.814
- RER of DIO (interval 39, hour 14.3): 0.854 and 0.82 and 0.839 and 0.825
- RER of DIO (interval 40, hour 14.7): 0.86 and 0.846 and 0.828 and 0.83
- RER of DIO (interval 41, hour 15.0): 0.866 and 0.871 and 0.84 and 0.828
- RER of DIO (interval 42, hour 15.4): 0.814 and 0.86 and 0.83 and 0.806
- RER of DIO (interval 43, hour 15.8): 0.858 and 0.883 and 0.843 and 0.83
- RER of DIO (interval 44, hour 16.1): 0.887 and 0.859 and 0.818 and 0.83
- RER of DIO (interval 45, hour 16.5): 0.883 and 0.858 and 0.81 and 0.824
- RER of DIO (interval 46, hour 16.9): 0.827 and 0.816 and 0.835 and 0.797
- RER of DIO (interval 47, hour 17.2): 0.845 and 0.787 and 0.84 and 0.811
- RER of DIO (interval 48, hour 17.6): 0.803 and 0.8 and 0.812 and 0.779
- RER of DIO (interval 49, hour 18.0): 0.826 and 0.77 and 0.786 and 0.808
- RER of DIO (interval 50, hour 18.3): 0.8 and 0.765 and 0.776 and 0.827
- RER of DIO (interval 51, hour 18.7): 0.816 and 0.804 and 0.782 and 0.849
- RER of DIO (interval 52, hour 19.1): 0.748 and 0.846 and 0.834 and 0.782
- RER of DIO (interval 53, hour 19.4): 0.829 and 0.795 and 0.809 and 0.784
- RER of DIO (interval 54, hour 19.8): 0.795 and 0.796 and 0.8 and 0.821
